According to patent US6632797B2, “Method of treating angiogenesis” (priority 1996, dated 2003):
Values joined by “and” are separate entries in the source; they are usually repeats but may differ in a detail not shown here. Identical values can stand only once.

How the values were obtained:
eye opening = experiment: Eye opening of new-born mice; type: in vivo; conditions: 192 μg/g/day, daily injections day 0 to day 7; controls 13.6 and 13.5 days
Description: Growth factors are involved in processes occuring in new-born mammals. The biological process of eye opening is one example where specific growth factors affect the timing and completeness of the event.
Three groups of mice, 40 animals in each group were used. […] The third group served as a control without any treatment.

[1] = tested on: Vascular permeability factor (VPF); experiment: VPF-induced vascular permeability, Evans Blue distribution in guinea pigs; type: in vivo, guinea pig; conditions: 5 mg/kg intravenous; after 60 minutes; control 62 mm^2
Procedure: Vascular permeability factor (VPF) promotes extravasation and oedema formation. Evans Blue was injected intravenously to 15 guinea pigs. This dye binds to plasma proteins and thereby provides a marker for vascular permeability to macromolecules.
50 mg of VPF was injected to each animal and the distribution of Evans Blue was measured.

[2] = tested on: fibroblast growth factor basic (bFGF); experiment: bFGF/Matrigel-induced swelling (tumor-like matrix) in nude mice; type: in vivo
Procedure: In a procedure similar to example 3 fibroblast growth factor basic (bFGF) was used.
D-myo-inositol-1,2,6-trisphosphate (IP3) was administered to five mice while another group of five mice, recieving saline, were a control group.

scarr formation on skin = experiment: Scar formation on scratches of the epidermis of a human hand, topical application; type: in vivo; conditions: topical solution, observation over 10 days
Procedure: To two of the scratches a solution comprising IP3 was applied topically while two of the scratches served as controls. Occular investigation was performed every day over a period of 10 days.

[3] = tested on: basic fibroblast growth factor (b FGF); experiment: b FGF-induced bone formation on the calvaria of mice; type: in vivo; parameters: key to Severeness of bone formation: 0: no bone formation; ++++: severe bone formation
Procedure: Injection of basic fibroblast growth factor (b FGF) stimulates osteoblastic activity and leads to bone formation.
The osmotic minipumps were implanted on day 1.
To the calvaria of each animal, 10 μl of b FGF (concentration 50 μg/ml) was injected four times daily of the period of day 2 to day 4.
After the experimental period of 14 days each animal was investigated macroscopically and the histological preparations were further examined by conventional routines.
Macroscopically visible bone formation was measured according to scale from
0 which represents no bone formation to
++++ which represents severe bone formation

[4] = tested on: heterotopic bone formation; experiment: Rabbit heterotopic bone (HB) development model; type: in vivo; parameters: key: ++++: very marked amount of HB; +++: marked amount of HB; ++: between slight and marked amount of HB; +: slight amount of HB; 0: none amount of HB; conditions: 1 mg/kg/hour s.c. osmotic minipump, day 42
Procedure: Heterotopic bone formation is caused by a local growth and formation of bone. One essential component in this process is the activation of growth factors.
The right hind limb of adult rabbits (weight about 4.0 kg) was immobilized with the knee in extension by means of a plastic splint and an elastic bandage, so that the Vastus intermedius profundus (VIP) muscle was in a shortened position and the hip joint could be moved freely.
According to the standard model the rabbits were treated by removing the splint daily for 2-3 minutes for forcible and rapid manipulation of the knee.
IP3 was administered via subcutaneously operated osmotic minipumps to three rabbits. The dose level was 1 mg/kg/hour, and the time of application period was 14-21 days. The control group, another three rabbits received NaCl-solution by osmotic minipumps.
Anteposterior and lateral radiographs were made of the hind limbs of all rabbits weekly throughout the duration of the experiment which lasted 42 days.
At the end of the experiment the rabbits were killed with an overdose of Mebunat and the left and right femoral bones of each rabbit were dissected and boiled for macroscopic examination.

[5] = tested on: Fibroblast growth factor (FGF); experiment: Interaction between FGF and radioactive IP3, co-elution on Sephadex G-25 / Heparin-Sepharose columns; type: binding; conditions: co-elution from Sephadex G-25, 50 mM Hepes pH 7.4
Procedure: The mixture was incubated for 1 hour at 4° C.
This type of column fractionate substances according to molecular weight. Substances with molecular weight exceeding 1500 will not penetrate the microspheres of the column and will accordingly elute quite soon after being loaded to the column, while smaller molecules will appear later as they partly or totally penetrate the microspheres depending on the molecular weight.
The incubate was loaded on the column and was uluted with 50 mM Hepes in fractions of 0.4 ml each.
To further determine the interaction the fractions with radioactivity and UV absorbance were loaded on a Heparin-Sepharose CL-6B column (Pharmacia Biotech, Sweden) (volume 25 ml, height 20 cm). […] Elution was performed with 50 mM Hepes, pH 7.4 and each fraction of 1 ml was collected for determination of radioactivity and UV absorbance. A peak with radioactivity but without UV absorption was loaded on a similar Sephadex G-25 column as described above and was eluted with the same type of buffer. Maximum radioactivity was obtained in fraction number 13 i.e. in this case the substance with radioactivity was more retained on the column.

Structure (SMILES): O=P(O)(O)OC1C(O)C(O)C(O)C(OP(=O)(O)O)C1OP(=O)(O)O [IP3, D-myo-inositol-1,2,6-trisphosphate]
- eye opening, medium value (eye opening): 15.3 days
- average area covered with Evans Blue [1]: 15 mm^2
- volume of the formed matrix ([2]; Day 1): 180 mm^3
- volume of the formed matrix ([2]; Day 3): 120 mm^3
- volume of the formed matrix ([2]; Day 5): 110 mm^3
- volume of the formed matrix ([2]; Day 7): 120 mm^3
- volume of the formed matrix ([2]; Day 8): 110 mm^3
- volume of the formed matrix ([2]; Day 9): 120 mm^3
- histological examinations of the animals ([2]; group where IP3 was administered): anti-angiogenic effects
- scarr formation compared to the control (scarr formation on skin): formed scarr in a delayed manner
- histological examination of the calvaria ([3]; 120 mg/kg/day for 14 days): anti-angiogenic properties
- Severeness of bone formation ([3]; 120 mg/kg/day osmotic minipump for 14 days, individual animals): 0
- Amount of HB ([4]; application of IP3 14 days, individual rabbits, 1 mg/kg): + and 0
- Amount of HB ([4]; application of IP3 21 days, individual rabbit): 0
- interaction between FGF and IP3 [5]: strong interaction
